BindingDB's records for doi:10.1073/pnas.0710981105 (Merck Research Laboratories, 2008)

Target: T1, Bile acid receptor (Homo sapiens, UniProt Q96RI1)
T1 sequence (Q96RI1 whole entry): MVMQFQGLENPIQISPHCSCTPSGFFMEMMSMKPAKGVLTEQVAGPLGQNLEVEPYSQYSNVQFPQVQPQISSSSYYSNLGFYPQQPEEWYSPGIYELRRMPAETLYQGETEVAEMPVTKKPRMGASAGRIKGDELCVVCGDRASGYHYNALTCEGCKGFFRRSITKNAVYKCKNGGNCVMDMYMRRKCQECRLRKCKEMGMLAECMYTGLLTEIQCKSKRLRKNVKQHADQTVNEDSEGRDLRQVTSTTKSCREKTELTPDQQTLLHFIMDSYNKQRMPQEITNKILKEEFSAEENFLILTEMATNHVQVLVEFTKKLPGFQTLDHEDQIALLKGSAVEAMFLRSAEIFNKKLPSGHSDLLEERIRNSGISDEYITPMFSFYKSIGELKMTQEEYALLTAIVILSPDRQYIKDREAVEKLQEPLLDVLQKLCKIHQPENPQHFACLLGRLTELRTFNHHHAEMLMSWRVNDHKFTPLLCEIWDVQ
Test: HTRF Coactivator Recruitment Assay
Conditions: pH 7; 4 °C
Experimental: To each well of a 96-well assay plate, assay buffer was added containing purified GST-FXR, Eu-labeled anti-GST antibody (Perkin-Elmer), streptavidin-XL665 (Packard Instruments), biotin-tagged SRC-1 fragment. The binding reaction was initiated by the addition of compound.

SMILES | EC50 [nM]
C[C@]12CCC(C(=O)O)=CC1=CCC1C2CC[C@@]2(C)C1CC[C@@H]2C(=O)c1ccccc1 (some centres not stated) [MFA-2] | 509
C[C@]12CCC(C(=O)O)=CC1=CCC1C2CC[C@@]2(C)C1CC[C@@H]2C(=O)c1ccc(O)cc1 (some centres not stated) [MFA-1] | 16.9
